# Test results from patent US20120214840A1, “INDOLIZINE INHIBITORS OF 5-LIPOXYGENASE” (PANMIRA PHARMACEUTICALS, LLC, priority 2009, published 2012).
# Tested on: LTB4 in human leukocytes
# Assay: Human Leukocyte LTB4 Inhibition Assay
# Type: cell-based
# Conditions: Leukocyte, 0.5 h; human leukocytes stimulated with calcium ionophore, 30 minutes at 37° C., LTB4 by ELISA; read-out: LTB4 HLA IC50
# Protocol: A non-limiting example of a human leukocyte inhibition assay is as follows: Blood was drawn from consenting human volunteers into heparanized tubes and 3% dextran 0.9% saline ⅓ rd volume added. After sedimentation of red blood cells a hypotonic lysis of remaining red blood cells was performed and leukocytes sedimented at 1200 rpm. The pellet was resuspended at 1.25×10^5 cells/ml and aliquoted into wells containing 1 μL 100% DMSO (vehicle) or 2.5 μL drug in 100% DMSO. Samples were incubated for 5 minutes at 37° C. and 2 μL calcium ionophore […] (from a 50 mM DMSO stock diluted just prior to the assay in Hanks balanced salt solution (Invitrogen)) to 1.25 mM) was added, solutions mixed and incubated for 30 minutes at 37° C. Samples were centrifuged at 1,200 rpm (˜200×g) for 10 minutes at 4° C., plasma removed and a 1:4 dilution assayed for LTB4 concentration using ELISA (Assay Designs). Drug concentrations to achieve 50% inhibition (IC50's) of vehicle LTB4 were determined by nonlinear regression (Graphpad Prism) of % inhibition versus log drug concentration.
row,Compound,IC50 [nM]
1,"CCC(O)(c1cn(Cc2ccc3c(-c4ccc(F)cc4)c(C(N)=O)cn3c2)nn1)C(F)(F)F (single isomer, unassigned; enantiomer a) [Compound 1-5, 1-(4-Fluoro-phenyl)-6-[4-(1-hydroxy-1-trifluoromethyl-propyl)-[1,2,3]triazol-1-ylmethyl]-indolizine-2-carboxylic acid amide (Enantiomer A)]",< 300
2,"CCOC(=O)c1cn2cc(Cn3cc(C(O)(CC)C(F)(F)F)nn3)ccc2c1-c1ccc(F)cc1 (centres unmarked) [Compound 1-1, 1-(4-Fluoro-phenyl)-6-[4-(1-hydroxy-1-trifluoromethyl-propyl)-[1,2,3]-triazol-1-ylmethyl]-indolizine-2-carboxylic acid ethyl ester]",< 300
3,"CCC(O)(c1cn(Cc2ccc3c(-c4ccc(F)cc4)c(C(N)=O)cn3c2)nn1)C(F)(F)F (centres unmarked) [Compound 1-2, 1-(4-Fluoro-phenyl)-6-[4-(1-hydroxy-1-trifluoromethyl-propyl)-[1,2,3]triazol-1-ylmethyl]-indolizine-2-carboxylic acid amide]",< 300
4,"CCC(O)(c1cn(Cc2ccc3c(-c4ccc(F)cc4)c(C#N)cn3c2)nn1)C(F)(F)F (centres unmarked) [Compound 1-3, 1-(4-Fluoro-phenyl)-6-[4-(1-hydroxy-1-trifluoromethyl-propyl)-[1,2,3]triazol-1-ylmethyl]-indolizine-2-carbonitrile]",< 300
5,"CCOC(=O)c1cn2cc(CNc3nnc(C(O)(CC)C(F)(F)F)o3)ccc2c1-c1ccc(F)cc1 (centres unmarked) [Compound 1-4, 1-(4-Fluoro-phenyl)-6-{[5-(1-hydroxy-1-trifluoromethyl-propyl)-[1,3,4]oxadiazol-2-ylamino]-methyl}-indolizine-2-carboxylic acid ethyl ester]",< 300
6,"C=C(C)c1c(C(=O)OCC)cn2cc(Cn3cc(C(O)(CC)C(F)(F)F)nn3)ccc12 (centres unmarked) [Compound 1-7, 6-[4-(1-Hydroxy-1-trifluoromethyl-propyl)-[1,2,3]triazol-1-ylmethyl]-1-isopropenyl-indolizine-2-carboxylic acid ethyl ester]",< 300
7,"CCOC(=O)c1cn2cc(Cn3cc(C(O)(CC)C(F)(F)F)nn3)ccc2c1C(C)C (centres unmarked) [Compound 1-8, 6-[4-(1-Hydroxy-1-trifluoromethyl-propyl)-[1,2,3]triazol-1-ylmethyl]-1-isopropyl-indolizine-2-carboxylic acid ethyl ester]",< 300
8,"CCC(O)(c1cn(Cc2ccc3c(C(C)C)c(C(N)=O)cn3c2)nn1)C(F)(F)F (centres unmarked) [Compound 1-9, 6-[4-(1-Hydroxy-1-trifluoromethyl-propyl)-[1,2,3]triazol-1-ylmethyl]-1-isopropyl-indolizine-2-carboxylic acid amide]",> 1000
9,"CCC(O)(c1cn(Cc2ccc3c(C(C)C)c(C#N)cn3c2)nn1)C(F)(F)F (centres unmarked) [Compound 1-10, 6-[4-(1-Hydroxy-1-trifluoromethyl-propyl)-[1,2,3]triazol-1-ylmethyl]-1-isopropyl-indolizine-2-carbonitrile]",< 300
10,"CCC(O)(c1cn(Cc2ccc3c(-c4ccc(F)cc4)c(C#N)nn3c2)nn1)C(F)(F)F (centres unmarked) [Compound 1-11, 3-(4-Fluoro-phenyl)-6-[4-(1-hydroxy-1-trifluoromethyl-propyl)-[1,2,3]triazol-1-ylmethyl]-pyrazolo[1,5-a]pyridine-2-carbonitrile]",< 300
11,"CCC(O)(c1cn(Cc2ccc3c(-c4ccc(F)cc4)c(C(N)=O)nn3c2)nn1)C(F)(F)F (centres unmarked) [Compound 1-12, 3-(4-Fluoro-phenyl)-6-[4-(1-hydroxy-1-trifluoromethyl-propyl)-[1,2,3]-triazol-1-ylmethyl]-pyrazolo[1,5-a]pyridine-2-carboxylic acid amide]",< 300
12,"CCOC(=O)c1cn2cc(Cn3cc(C(O)(CC)C(F)(F)F)nn3)ccc2c1-c1ccc(OC)nc1 (centres unmarked) [Compound 1-13, 6-[4-(1-Hydroxy-1-trifluoromethyl-propyl)-[1,2,3]triazol-1-ylmethyl]-1-(6-methoxy-pyridin-3-yl)-indolizine-2-carboxylic acid ethyl ester]",< 300
13,"CCC(O)(c1cn(Cc2ccc3c(-c4ccc(OC)nc4)c(C(N)=O)cn3c2)nn1)C(F)(F)F (centres unmarked) [Compound 1-14, 6-[4-(1-Hydroxy-1-trifluoromethyl-propyl)-[1,2,3]triazol-1-ylmethyl]-1-(6-methoxy-pyridin-3-yl)-indolizine-2-carboxylic acid amide]",< 300

# Same assay, conditions: human leukocytes stimulated with calcium ionophore, 30 minutes at 37° C., LTB4 by ELISA; read-out: LTB4 HLA IC50
row,Compound,IC50 [nM]
1,"CCC(O)(c1cn(Cc2ccc3c(-c4ccc(F)cc4)c(C(N)=O)cn3c2)nn1)C(F)(F)F (single isomer, unassigned; enantiomer b) [Compound 1-6, 1-(4-Fluoro-phenyl)-6-[4-(1-hydroxy-1-trifluoromethyl-propyl)-[1,2,3]triazol-1-ylmethyl]-indolizine-2-carboxylic acid amide (Enantiomer B)]",< 300
